Assay results reported in EP2919004A1, “Bioassays on modified TLC/HPTLC plates” (Merck Patent GmbH, priority 2014, dated 2015).

Tested on: hER
Test: HPTLC-pYES (planar yeast estrogen screen) on RP-18 W plate, lac-Z reporter / MUG fluorescence
Format: cell-based, human
Conditions: for E2Eq: E2 equivalent calculated as EC50E2/EC50sample, recombinant Saccharomyces cerevisiae BJ3505, dose-response curves after separation on RP 18W plate, n=4; for estrogenic/bioactive effect in pYES: standard solutions or sample zone detected with the pYES, qualitative
Method: HPTLC. Standard and sample solutions (0.1-10 µL) were applied on the HPTLC plate RP-18 W (Merck Millipore, Darmstadt, Germany) as 6.5 mm bands by the Automatic TLC Sampler 4 (ATS4; CAMAG, Muttenz, Switzerland). […] The standard mixture was applied by overspaying of the individual standard solutions, which allowed flexibility for individual mixtures and volumes. For determination of the recovery rate, 0.1 µL P1 sample was sprayed on the plate and oversprayed with 0.1 µL - 2 µL CAPE standard solution. After sample application, the start zones were dried for 1 min using a hair dryer. Development was performed in a Twin Trough Chamber (20 x 10 cm, CAMAG), using n-hexane - toluene - ethyl acetate 4:1.5:1, v/v/v (all from ROTH) up to a migration distance of 70 mm. After development, the plate was dried with cold air using a hair dryer for 2 min to remove the residual solvent. The developed plate was documented at 366 nm illumination using the TLC Visualizer (CAMAG).
Cell cultivation. Saccharomyces cerevisiae BJ3505 (protease-deficient, MATα, PEP4: HIS3, Prb1Δ1.6R, HIS3Δ200, lys2-208, trp1Δ101, ura3-52) generated by McDonnell et al. (61, 62) was used for the pYES-assay. All experimental studies were based on stock of the recombinant estrogen sensitive yeast cells stored in 30% glycerol supplemented growth media, consisting of D-glucose 1 g/L, yeast nitrogen base 6.8 g/L, both Sigma Aldrich, Steinheim, Germany, and amino acid components according to Routledge and Sumpter (50), at -80 °C. From the stock, cells were streaked on an agar plate with growth medium (30°C, two days) to supply colonies for further suspension cultivation. Shaking suspension cultures were inoculated in 20 mL growth medium and cultured at 30 °C at 100 rpm for 18 h. Prior to the assay, cell concentration and viability determination was performed using a hemocytometer and trypan blue (0.4% Sigma Aldrich) staining. For the pYES, the cell number was adjusted to 2.5 x 10^8 cells in 50 mL with 150 µM CuSO4 supplemented growth medium. To remain constant cell quality within the exponential growth phase for further studies, cells were split daily by 1:10 dilution.
HPTLC-pYES. As the HPTLC was developed and cells were prepared, the pYES assay was started. The plate was automatically immersed into the cell suspension using the TLC Immersion Device (CAMAG) with a speed of 3.5 cm/s and an immersion time of 5 s. Thus, the cell suspension was homogeneously transferred onto the plate surface. The wettened plate was incubated in a horizontal position in a plastic box under almost 100% humidified air at 30 °C for 3 h. Thereafter, the plate was dried with cold air using a hair dryer for 2 min. For determination of the resulting ß-galactosidase, the plate was treated with the substrate 4-methylumbelliferyl-ß-D-galactopyranoside (MUG, Roth). ß-galactosidase acts on the substrate MUG to produce 4-methylumbelliferone (MU), detected as blue fluorescence at pH>7. MUG was dissolved in DMSO (20 mg/mL, Roth) and added to the reaction buffer (citric acid 6 g/L, disodium hydrogen phosphate 10 g/L, pH 12, Merck) to a final concentration of 0.5 mg/mL. The dried plate was immersed in the substrate solution according to the previous speed and immersion time. A second incubation period of 60 min at 37°C followed. The substrate reaction was terminated by immersion of the plate into a solution of glycine - NaOH (0.1 M, Roth), pH°12. […] Fluorescence measurement at 366/>400 nm was performed with the mercury lamp using the TLC Scanner 3 (CAMAG). Images were taken at 366 nm illumination using the Reprostar 3 documentation system (CAMAG).
The half maximal effective concentration (EC50) was calculated for comparison of the receptor affinities.

SMILES | E2Eq | estrogenic/bioactive effect in pYES
CC(C)(c1ccc(O)cc1)c1ccc(O)cc1 [BPA, bisphenol A] | 3.3x10^-4 | –
O=C(/C=C/c1ccc(O)c(O)c1)OCCc1ccccc1 [CAPE, Caffeic acid phenethyl ester] | – | bioactive EDC zone
C#C[C@]1(O)CC[C@H]2[C@@H]3CCc4cc(O)ccc4[C@H]3CC[C@@]21C [EE2, 17α-ethinylestradiol] | 0.3 | –
CCCCCCCCCc1ccc(O)cc1 [NP, 4-n-Nonylphenol] | 2.3x10^-4 | –
O=c1cc(-c2ccc(O)c(O)c2)oc2cc(O)cc(O)c12 [luteolin] | – | showed an estrogenic/bioactive effect
O=c1c(O)c(-c2ccc(O)c(O)c2)oc2cc(O)cc(O)c12 [quercetin] | – | showed an estrogenic/bioactive effect
